Tests used:
Assay type in all cases: in vitro ADME
Conditions in all cases: 1 μg/mL, 37° C.
[1] = Conversion of prodrug to drug in plasma (rat)
Method: (§1) The conversion of N-oxide prodrugs to the corresponding parent compounds is due to a reduction mechanism. […] The presence of an oxidant in the work-up solution should help preventing the reduction of the N-oxides.
(§2) Conversion in plasma: 10 μLs of a 100 μg/mL DMSO solution of the pro-drug were added to 1 mL plasma to reach a final concentration of 1 μg/mL. The incubation was performed at 37° C. and 8 aliquots were taken at different time points over 30 min. These aliquots were treated with 3 volumes of cold MeOH containing H2O2 (final concentration 10% v/v) and centrifuged at 3500 g for 20 min at 10° C. The supernatant was directly used to determine the drug levels by LC-MS-MS (HPLC chromatography on reversed phase column X-Terra MS C18 […] 2.1×30 mm Waters at 40° C., using a polarity gradient MeOH/Form.Ac.
(§3) 1% 20/80/MeOH; run time; 3.0 min; inj. Vol.: 10 μL; Flow: […] and MS/MS detection on a PE Sciex API-2000 MS/MS spectrometer; ion source: Turbospray; ionisation mode: ESP+).
(§4) Sample stability (plasma and blood): The final matrix were first prepared (plasma or blood treated with 3 volumes of cold MeOH containing H2O2—10% v/v—and centrifuged at 3500 g for 20 min at 10° C.) and then incubated at 37° C. into two tubes; the pro-drug or the drug were then incubated and finally their concentration determined by LC-MS-MS as described above.

[2] = Conversion of prodrug to drug in plasma (dog)
Method: as §1, §2, §3, §4

[3] = Conversion of prodrug to drug in plasma (human)
Method: as §1, §2, §3, §4

| SMILES | t½ conversion prodrug to drug, Rat plasma [1] [h] | t½ conversion prodrug to drug, Dog plasma [2] [h] | t½ conversion prodrug to drug, Human plasma [3] [h] |
| --- | --- | --- | --- |
| Cc1ccccc1-c1cc([N+]2([O-])CCOCC2)ncc1N(C)C(=O)C(C)(C)c1cc(C(F)(F)F)cc(C(F)(F)F)c1 [Example 1, 2-(3,5-Bis-trifluoromethyl-phenyl)-N-methyl-N-[6-(4-oxy-morpholin-4-yl)-4-o-tolyl-pyridin-3-yl]-isobutyramide] | 4 | 18 | 8 |
| CN(C(=O)C(C)(C)c1cc(C(F)(F)F)cc(C(F)(F)F)c1)c1cnc([N+]2([O-])CCOCC2)cc1-c1ccccc1Cl [Example 2, 2-(3,5-Bis-trifluoromethyl-phenyl)-N-[4-(2-chloro-phenyl)-6-(4-oxy-morpholin-4-yl)-pyridin-3-yl]-N-methyl-isobutyramide] | 5 | 18 | 12 |
| Cc1ccccc1-c1cc([N+]2([O-])CCOCC2)ncc1C(=O)N(C)Cc1cc(C(F)(F)F)cc(C(F)(F)F)c1.O [Example 16, N-(3,5-Bis-trifluoromethyl-benzyl)-N-methyl-6-(4-oxy-morpholin-4-yl)-4-o-tolyl-nicotinamide monohydrate] | 2 | 16 | 6 |

Source: patent US6806370B2, “NK-1 receptor active amine oxide prodrugs” (Hoffmann-La Roche Inc., priority 2000, dated 2004)
